Results: ChEMBL document CHEMBL1201862, “PubChem BioAssay data set” (2004)
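Method: 48-hour compound exposure of cells in 96-well plates, five concentrations, linear interpolation of endpoints. The concentration for 50% growth inhibition is given as GI50.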 Calls of active or inactive are those of the source. No stated cut-off is given here; in the data, active = GI50 up to about 1.1 µM and inactive = higher.

Assays:
Assay in all cases: NCI-60 cell line screen, 48 h
SK-MEL-5 = tested on: SK-MEL-5
LXFL 529 = tested on: LXFL 529
HCT-116 = tested on: HCT-116
U-251 = tested on: U-251
KM-20L2 = tested on: KM-20L2
SK-MEL-28 = tested on: SK-MEL-28
SNB-75 = tested on: SNB-75
A498 = tested on: A498
DMS-273 = tested on: DMS-273
UACC-257 = tested on: UACC-257
ACHN = tested on: ACHN
LOX IMVI = tested on: LOX IMVI
KM12 = tested on: KM12
COLO 205 = tested on: COLO 205
SK-OV-3 = tested on: SK-OV-3
SK-MEL-2 = tested on: SK-MEL-2
HOP-62 = tested on: HOP-62
SF-539 = tested on: SF-539
SF-295 = tested on: SF-295
NCI-H522 = tested on: NCI-H522
HL-60 = tested on: HL-60
NCI-H23 = tested on: NCI-H23
786-0 = tested on: 786-0
OVCAR-3 = tested on: OVCAR-3
DLD-1 = tested on: DLD-1
NCI-H460 = tested on: NCI-H460
OVCAR-4 = tested on: OVCAR-4
SW-620 = tested on: SW-620
HOP-92 = tested on: HOP-92
RPMI-8226 = tested on: RPMI-8226
OVCAR-8 = tested on: OVCAR-8
CCRF-CEM = tested on: CCRF-CEM
UO-31 = tested on: UO-31
CAKI-1 = tested on: CAKI-1
HCT-15 = tested on: HCT-15
TK-10 = tested on: TK-10
NCI-H226 = tested on: NCI-H226
A549 = tested on: A549
SNB-78 = tested on: SNB-78
IGROV-1 = tested on: IGROV-1
SNB-19 = tested on: SNB-19
SN12C = tested on: SN12C
EKVX = tested on: EKVX
M19-MEL = tested on: M19-MEL
SR = tested on: SR
MOLT-4 = tested on: MOLT-4
SF-268 = tested on: SF-268
DMS-114 = tested on: DMS-114
HT-29 = tested on: HT-29
K562 = tested on: K562
UACC-62 = tested on: UACC-62
HCC 2998 = tested on: HCC 2998
RXF 393 = tested on: RXF 393
Malme-3M = tested on: Malme-3M
OVCAR-5 = tested on: OVCAR-5
M14 = tested on: M14

## Cc1c2n(c(=O)[nH]c1=O)C1OC(CO)C(O2)C1N=[N+]=[N-] (stereo not drawn)
SK-MEL-5
  GI50: > 100 µM (inactive)
LXFL 529
  GI50: > 100 µM (inactive)
HCT-116
  GI50: > 100 µM (inactive)
U-251
  GI50: > 100 µM (inactive)
KM-20L2
  GI50: > 100 µM (inactive)
SK-MEL-28
  GI50: > 100 µM (inactive)
SNB-75
  GI50: > 100 µM (inactive)
A498
  GI50: 78 µM (inactive)
DMS-273
  GI50: > 100 µM (inactive)
UACC-257
  GI50: > 100 µM (inactive)
ACHN
  GI50: > 100 µM (inactive)
LOX IMVI
  GI50: > 100 µM (inactive)
KM12
  GI50: > 100 µM (inactive)
COLO 205
  GI50: > 100 µM (inactive)
SK-OV-3
  GI50: > 100 µM (inactive)
SK-MEL-2
  GI50: > 100 µM (inactive)
HOP-62
  GI50: > 100 µM (inactive)
SF-539
  GI50: > 100 µM (inactive)
SF-295
  GI50: > 100 µM (inactive)
NCI-H522
  GI50: > 100 µM (inactive)
HL-60
  GI50: > 100 µM (inactive)
NCI-H23
  GI50: > 100 µM (inactive)
786-0
  GI50: > 100 µM (inactive)
OVCAR-3
  GI50: > 100 µM (inactive)
DLD-1
  GI50: > 100 µM (inactive)
NCI-H460
  GI50: > 100 µM (inactive)
OVCAR-4
  GI50: > 100 µM (inactive)
SW-620
  GI50: > 100 µM (inactive)
HOP-92
  GI50: > 100 µM (inactive)
RPMI-8226
  GI50: > 100 µM (inactive)
OVCAR-8
  GI50: > 100 µM (inactive)
CCRF-CEM
  GI50: > 100 µM (inactive)
UO-31
  GI50: > 100 µM (inactive)
CAKI-1
  GI50: > 100 µM (inactive)
HCT-15
  GI50: > 100 µM
TK-10
  GI50: > 100 µM (inactive)
NCI-H226
  GI50: > 100 µM (inactive)
A549
  GI50: > 100 µM (inactive)
SNB-78
  GI50: > 100 µM (inactive)
IGROV-1
  GI50: > 100 µM (inactive)
SNB-19
  GI50: > 100 µM (inactive)
SN12C
  GI50: > 100 µM (inactive)
EKVX
  GI50: > 100 µM (inactive)
M19-MEL
  GI50: > 100 µM (inactive)
SR
  GI50: > 100 µM (inactive)
MOLT-4
  GI50: > 100 µM (inactive)
SF-268
  GI50: > 100 µM (inactive)
DMS-114
  GI50: > 100 µM (inactive)
HT-29
  GI50: > 100 µM (inactive)
K562
  GI50: > 100 µM (inactive)
UACC-62
  GI50: > 100 µM (inactive)

## CC1(C)CC2(S(=O)(=O)c3ccccc3)ON1CC2S(=O)(=O)c1ccccc1 (stereo not drawn)
LXFL 529
  GI50: 76.9 µM (inactive)
HCT-116
  GI50: > 100 µM (inactive)
U-251
  GI50: > 100 µM (inactive)
KM-20L2
  GI50: > 100 µM (inactive)
SK-MEL-28
  GI50: 86.1 µM (inactive)
SNB-75
  GI50: > 100 µM (inactive)
DMS-273
  GI50: 53.6 µM (inactive)
HCC 2998
  GI50: > 100 µM (inactive)
UACC-257
  GI50: > 100 µM (inactive)
ACHN
  GI50: > 100 µM (inactive)
LOX IMVI
  GI50: 87.1 µM (inactive)
KM12
  GI50: > 100 µM (inactive)
COLO 205
  GI50: > 100 µM (inactive)
SK-OV-3
  GI50: > 100 µM (inactive)
SK-MEL-2
  GI50: > 100 µM (inactive)
HOP-62
  GI50: > 100 µM (inactive)
SF-539
  GI50: > 100 µM (inactive)
SF-295
  GI50: > 100 µM (inactive)
RXF 393
  GI50: 48.4 µM (inactive)
Malme-3M
  GI50: > 100 µM (inactive)
NCI-H522
  GI50: 29.4 µM (inactive)
HL-60
  GI50: 26.4 µM (inactive)
NCI-H23
  GI50: 88.5 µM (inactive)
786-0
  GI50: > 100 µM (inactive)
OVCAR-5
  GI50: > 100 µM (inactive)
OVCAR-3
  GI50: > 100 µM (inactive)
DLD-1
  GI50: > 100 µM (inactive)
NCI-H460
  GI50: > 100 µM (inactive)
OVCAR-4
  GI50: 54.6 µM (inactive)
SW-620
  GI50: > 100 µM (inactive)
RPMI-8226
  GI50: 35.7 µM (inactive)
M14
  GI50: > 100 µM (inactive)
OVCAR-8
  GI50: 74.1 µM (inactive)
CCRF-CEM
  GI50: 26.8 µM (inactive)
UO-31
  GI50: 94.2 µM (inactive)
CAKI-1
  GI50: 77.3 µM (inactive)
HCT-15
  GI50: > 100 µM
TK-10
  GI50: > 100 µM (inactive)
NCI-H226
  GI50: > 100 µM (inactive)
A549
  GI50: > 100 µM (inactive)
IGROV-1
  GI50: > 100 µM (inactive)
SNB-19
  GI50: > 100 µM (inactive)
SN12C
  GI50: > 100 µM (inactive)
EKVX
  GI50: > 100 µM (inactive)
M19-MEL
  GI50: > 100 µM (inactive)
SR
  GI50: 39.4 µM (inactive)
MOLT-4
  GI50: 30.8 µM (inactive)
SF-268
  GI50: > 100 µM (inactive)
DMS-114
  GI50: 67.1 µM (inactive)
HT-29
  GI50: > 100 µM (inactive)
K562
  GI50: 47.1 µM (inactive)
UACC-62
  GI50: 91.2 µM (inactive)
